Test results: ChEMBL document CHEMBL1201861, “Genomics of Drug Sensitity in Cancer screening data, Wellcome Trust Sanger Institute”
“And” between values parts separate entries of the source, which are not always exact repeats. Equal values may be shown once. Where a SMILES comes first, the peptide text is derived from it. The star is where a group is joined. Cbz = O=C(OCc1ccccc1)*

Legend:
786-0 = test: cells; type: functional, cell-based; settings: Homo sapiens
Description: SANGER: Inhibition of human 786-0 cell growth in a cell viability assay.

MKN-1 = test: cells; type: functional, cell-based; settings: Homo sapiens
Description: SANGER: Inhibition of human MKN1 cell growth in a cell viability assay.

SK-MES-1 = test: cells; type: functional, cell-based; settings: Homo sapiens
Description: SANGER: Inhibition of human SK-MES-1 cell growth in a cell viability assay.

HuCCT-1 = test: cells; type: functional, cell-based, HuCCT1; settings: Homo sapiens
Description: SANGER: Inhibition of human HuCCT1 cell growth in a cell viability assay.

A 172 = test: cells; type: functional, cell-based; settings: Homo sapiens
Description: SANGER: Inhibition of human A172 cell growth in a cell viability assay.

CAL-51 = test: cells; type: functional, cell-based; settings: Homo sapiens
Description: SANGER: Inhibition of human CAL-51 cell growth in a cell viability assay.

SF-295 = test: cells; type: functional, cell-based; settings: Homo sapiens
Description: SANGER: Inhibition of human SF295 cell growth in a cell viability assay.

SK-MEL3 = test: cells; type: functional, cell-based, SK-MEL-3; settings: Homo sapiens
Description: SANGER: Inhibition of human SK-MEL-3 cell growth in a cell viability assay.

NCI-H1651 = test: cells; type: functional, cell-based; settings: Homo sapiens
Description: SANGER: Inhibition of human NCI-H1651 cell growth in a cell viability assay.

CaR-1 = test: cells; type: functional, cell-based; settings: Homo sapiens
Description: SANGER: Inhibition of human CaR-1 cell growth in a cell viability assay.

HuP-T4 = test: cells; type: functional, cell-based; settings: Homo sapiens
Description: SANGER: Inhibition of human HuP-T4 cell growth in a cell viability assay.

A-375 = test: cells; type: functional, cell-based; settings: Homo sapiens
Description: SANGER: Inhibition of human A375 cell growth in a cell viability assay.

SW837 = test: cells; type: functional, cell-based; settings: Homo sapiens
Description: SANGER: Inhibition of human SW837 cell growth in a cell viability assay.

BEN = test: cells; type: functional, cell-based; settings: Homo sapiens
Description: SANGER: Inhibition of human BEN cell growth in a cell viability assay.

SJRH30 = test: cells; type: functional, cell-based; settings: Homo sapiens
Description: SANGER: Inhibition of human SJRH30 cell growth in a cell viability assay.

HO-1-N-1 = test: cells; type: functional, cell-based; settings: Homo sapiens
Description: SANGER: Inhibition of human HO-1-N-1 cell growth in a cell viability assay.

RMG-I = test: cells; type: functional, cell-based; settings: Homo sapiens
Description: SANGER: Inhibition of human RMG-I cell growth in a cell viability assay.

PANC-03-27 = test: cells; type: functional, cell-based; settings: Homo sapiens
Description: SANGER: Inhibition of human PANC-03-27 cell growth in a cell viability assay.

NCI-H1693 = test: cells; type: functional, cell-based; settings: Homo sapiens
Description: SANGER: Inhibition of human NCI-H1693 cell growth in a cell viability assay.

SK-MEL-28 = test: cells; type: functional, cell-based; settings: Homo sapiens
Description: SANGER: Inhibition of human SK-MEL-28 cell growth in a cell viability assay.

LCLC-103H cell line = test: cells; type: functional, cell-based; settings: Homo sapiens
Description: SANGER: Inhibition of human LCLC-103H cell growth in a cell viability assay.

RVH-421 = test: cells; type: functional, cell-based; settings: Homo sapiens
Description: SANGER: Inhibition of human RVH-421 cell growth in a cell viability assay.

CHL-1 = test: cells; type: functional, cell-based; settings: Homo sapiens
Description: SANGER: Inhibition of human CHL-1 cell growth in a cell viability assay.

OE19 = test: cells; type: functional, cell-based; settings: Homo sapiens
Description: SANGER: Inhibition of human OE19 cell growth in a cell viability assay.

COLO-792 = test: cells; type: functional, cell-based; settings: Homo sapiens
Description: SANGER: Inhibition of human COLO-792 cell growth in a cell viability assay.

GCT = test: cells; type: functional, cell-based; settings: Homo sapiens
Description: SANGER: Inhibition of human GCT cell growth in a cell viability assay.

G-401 = test: cells; type: functional, cell-based; settings: Homo sapiens
Description: SANGER: Inhibition of human G-401 cell growth in a cell viability assay.

KYSE-520 cell line = test: cells; type: functional, cell-based; settings: Homo sapiens
Description: SANGER: Inhibition of human KYSE-520 cell growth in a cell viability assay.

HCC1954 = test: cells; type: functional, cell-based; settings: Homo sapiens
Description: SANGER: Inhibition of human HCC1954 cell growth in a cell viability assay.

SK-HEP1 = test: cells; type: functional, cell-based, SK-HEP-1; settings: Homo sapiens
Description: SANGER: Inhibition of human SK-HEP-1 cell growth in a cell viability assay.

EFO-21 = test: cells; type: functional, cell-based; settings: Homo sapiens
Description: SANGER: Inhibition of human EFO-21 cell growth in a cell viability assay.

SNU-449 = test: cells; type: functional, cell-based; settings: Homo sapiens
Description: SANGER: Inhibition of human SNU-449 cell growth in a cell viability assay.

KYSE-70 cell line = test: cells; type: functional, cell-based; settings: Homo sapiens
Description: SANGER: Inhibition of human KYSE-70 cell growth in a cell viability assay.

U2OS = test: cells; type: functional, cell-based, U-2-OS; settings: Homo sapiens
Description: SANGER: Inhibition of human U-2-OS cell growth in a cell viability assay.

MDA-MB-361 = test: cells; type: functional, cell-based; settings: Homo sapiens
KP-4 = test: cells; type: functional, cell-based; settings: Homo sapiens
Description: SANGER: Inhibition of human KP-4 cell growth in a cell viability assay.

IGR-1 = test: cells; type: functional, cell-based; settings: Homo sapiens
Description: SANGER: Inhibition of human IGR-1 cell growth in a cell viability assay.

MDA-MB-157 = test: cells; type: functional, cell-based; settings: Homo sapiens
Description: SANGER: Inhibition of human MDA-MB-157 cell growth in a cell viability assay.

ABC-1 = test: cells; type: functional, cell-based; settings: Homo sapiens
Description: SANGER: Inhibition of human ABC-1 cell growth in a cell viability assay.

CHP-212 = test: cells; type: functional, cell-based; settings: Homo sapiens
Description: SANGER: Inhibition of human CHP-212 cell growth in a cell viability assay.

THP-1 = test: cells; type: functional, cell-based, Homo sapiens; settings: thp-1
Description: SANGER: Inhibition of human THP-1 cell growth in a cell viability assay.

NCI-H524 = test: cells; type: functional, cell-based, Homo sapiens
Description: SANGER: Inhibition of human NCI-H524 cell growth in a cell viability assay.

BC1 cell line = test: SANGER: Inhibition of human BC-1 cell growth in a cell viability assay.; type: functional, cell-based
MHH-CALL-2 = test: cells; type: functional, cell-based, Homo sapiens; settings: mhh-call-2
Description: SANGER: Inhibition of human MHH-CALL-2 cell growth in a cell viability assay.

MC-CAR = test: cells; type: functional, cell-based, Homo sapiens; settings: mc-car
Description: SANGER: Inhibition of human MC-CAR cell growth in a cell viability assay.

Daudi = test: cells; type: functional, cell-based, Homo sapiens; settings: daudi
Description: SANGER: Inhibition of human Daudi cell growth in a cell viability assay.

NCI-H889 = test: cells; type: functional, cell-based, Homo sapiens; settings: nci-h889
Description: SANGER: Inhibition of human NCI-H889 cell growth in a cell viability assay.

NCI-H1694 = test: cells; type: functional, cell-based, Homo sapiens
Description: SANGER: Inhibition of human NCI-H1694 cell growth in a cell viability assay.

WSU-NHL = test: cells; type: functional, cell-based, Homo sapiens; settings: wsu-nhl
Description: SANGER: Inhibition of human WSU-NHL cell growth in a cell viability assay.

L-540 = test: cells; type: functional, cell-based, Homo sapiens; settings: l-540
Description: SANGER: Inhibition of human L-540 cell growth in a cell viability assay.

MRK-nu-1 = test: cells; type: functional, cell-based, Homo sapiens; settings: mrk-nu-1
Description: SANGER: Inhibition of human MRK-nu-1 cell growth in a cell viability assay.

CMK = test: cells; type: functional, cell-based, Homo sapiens; settings: cmk
Description: SANGER: Inhibition of human CMK cell growth in a cell viability assay.

YT = test: cells; type: functional, cell-based, Homo sapiens; settings: yt
Description: SANGER: Inhibition of human YT cell growth in a cell viability assay.

HC-1 = test: cells; type: functional, cell-based, Homo sapiens; settings: hc-1
Description: SANGER: Inhibition of human HC-1 cell growth in a cell viability assay.

NCI-H1417 = test: cells; type: functional, cell-based, Homo sapiens; settings: nci-h1417
Description: SANGER: Inhibition of human NCI-H1417 cell growth in a cell viability assay.

TE-441-T = test: cells; type: functional, cell-based, Homo sapiens; settings: te-441-t
Description: SANGER: Inhibition of human TE-441-T cell growth in a cell viability assay.

## O=C(NCCCNc1nc(Nc2cccc(NC(=O)N3CCCC3)c2)ncc1I)c1cccs1 [BX-795]
786-0
  IC50: > 5000 nM
MKN-1
  IC50: > 5000 nM
SK-MES-1
  IC50: 2960 nM
HuCCT-1
  IC50: > 5000 nM
A 172
  IC50: 4450 nM
CAL-51
  IC50: 1220 nM
SF-295
  IC50: 4180 nM
SK-MEL3
  IC50: > 5000 nM
NCI-H1651
  IC50: > 5000 nM
CaR-1
  IC50: > 5000 nM
HuP-T4
  IC50: > 5000 nM
A-375
  IC50: 1310 nM
SW837
  IC50: > 5000 nM
BEN
  IC50: > 5000 nM
SJRH30
  IC50: > 5000 nM
HO-1-N-1
  IC50: 1970 nM
RMG-I
  IC50: > 5000 nM
PANC-03-27
  IC50: 4210 nM
NCI-H1693
  IC50: > 5000 nM
SK-MEL-28
  IC50: > 5000 nM
LCLC-103H cell line
  IC50: 4070 nM
RVH-421
  IC50: > 5000 nM
CHL-1
  IC50: 1920 nM
OE19
  IC50: > 5000 nM
COLO-792
  IC50: > 5000 nM
GCT
  IC50: > 5000 nM
G-401
  IC50: 2560 nM
KYSE-520 cell line
  IC50: > 5000 nM
HCC1954
  IC50: > 5000 nM
SK-HEP1
  IC50: 2970 nM
EFO-21
  IC50: > 5000 nM
SNU-449
  IC50: 5000 nM
KYSE-70 cell line
  IC50: > 5000 nM
U2OS
  IC50: 1590 nM
MDA-MB-361
  IC50: > 5000 nM
KP-4
  IC50: > 5000 nM
IGR-1
  IC50: > 5000 nM
MDA-MB-157
  IC50: 1720 nM
ABC-1
  IC50: 4810 nM
CHP-212
  IC50: 1140 nM

## CC(C)C[C@@H](C=O)NC(=O)[C@H](CC(C)C)NC(=O)[C@H](CC(C)C)NC(=O)OCc1ccccc1 [MG-132] (Cbz-Leu-Leu-Leu-aldehyde)
THP-1
  IC50: > 1000 nM
NCI-H524; Homo sapiens, NCI-H524
  IC50: > 1000 nM
NCI-H524; nci-h524
  IC50: > 1000 nM
BC1 cell line; Homo sapiens, BC1
  IC50: > 1000 nM
BC1 cell line; bc1
  IC50: > 1000 nM
MHH-CALL-2
  IC50: > 1000 nM
MC-CAR
  IC50: > 1000 nM
Daudi
  IC50: > 1000 nM
NCI-H889
  IC50: > 1000 nM
NCI-H1694; Homo sapiens, NCI-H1694
  IC50: > 1000 nM
NCI-H1694; nci-h1694
  IC50: > 1000 nM
WSU-NHL
  IC50: > 1000 nM
L-540
  IC50: > 1000 nM
MRK-nu-1
  IC50: > 1000 nM
CMK
  IC50: 311 nM and > 1000 nM
YT
  IC50: > 1000 nM
HC-1
  IC50: > 1000 nM
NCI-H1417
  IC50: > 1000 nM
TE-441-T
  IC50: > 1000 nM
